According to patent publication US20230138395A1, “PHARMACEUTICAL COMPOSITIONS OF A THERAPEUTIC POLYENE MACROLIDE AND METHODS OF THEIR USE” (priority 2020, published 2023):
In brackets after ≈: the same amount, converted by molar mass. Several values for one entry are separate records, joined by “and”; a condition that tells them apart may be missing. Equal values may be shown once. Read-outs that look alike come from different tables or passages of the source.

Legend:
[1] = system: Candida albicans ATCC 10231; experiment: MIC50 growth inhibition assay of compositions (OD600), Example 12; type: cell-based; conditions: concentration giving 50% growth inhibition
Protocol: Efficacy of the compositions was determined using Minimum Inhibitory Concentration assays, and the concentration of active compound giving 50% growth inhibition of the indicator organism was reported (MIC50). The assay was performed in well plates with two (Müller-Hinton medium) or three parallel (M19-medium) cell cultures for each condition.
Cell Culture Medium: Müller-Hinton and M19 without NaCl.
Indicator Organism: Candida albicans ATCC 10231
Stock Solutions of the Active Compounds and Control: • Amphotericin B (USP): vacuum dried powder was dissolved in DMSO to 2.5 mg/mL giving a final concentration after inoculation of 2.5 μg/mL in the well with the highest concentration. • compound 1A (custom made): powder was dissolved in DMSO to 2.5 mg/mL giving a final concentration after inoculation of 2.5 μg/ml compound 1A in the well with the highest concentration. It is assumed that the batch is 70% pure. • Example 3 composition: the formulation was a suspension with 18 mg/mL nanoparticles. The suspension was diluted in a medium and C. albicans inoculum to a final concentration of 5 μg/mL of compound 1A and 130 μg/mL of […]. From this solution 10 dilutions were prepared giving 0.009 μg/ml compound 1A in the lowest concentration. • Empty poly(ethylbutyl cyanoacrylate) particles: empty poly(ethylbutyl cyanoacrylate) particles were used as a reference. The empty poly(ethylbutyl cyanoacrylate) was produced in the same manner as those in Examples 2 and 3, with the exception that they were prepared at pH 1, with vanillin concentration of 10% (w/w), and. The particles were diluted in the same manner as Example 3. The highest poly(ethylbutyl cyanoacrylate) concentration tested was 130 μg/mL.
Growth measurements were performed at OD600.

Candida albicans = experiment: MFC determination; type: cell-based; conditions: for MFC Range: in µg/mL; for MFC50: kills 50% of strains; for MFC90: kills 90% of strains
C. glabrata strains [2] = experiment: MIC testing (CLSI M27-A3); type: cell-based; design: MIC: unit not given beside the values; conditions: for MIC50 / MIC90: C. glabrata; for MIC50: inhibits 50% of strains; for MIC90: inhibits 90% of strains
C. glabrata strains [3] = experiment: MFC determination; type: cell-based; design: MFC: unit not given beside the values; conditions: for MFC Range: C. glabrata strains; for MFC50 / MFC90: C. glabrata; for MFC50: kills 50% of strains; for MFC90: kills 90% of strains
C. tropicalis [4] = experiment: MIC testing (CLSI M27-A3); type: cell-based; conditions: for MIC Range: C. tropicalis strains, in µg/mL; for MIC50 / MIC90: C. tropicalis; for MIC50: inhibits 50% of strains; for MIC90: inhibits 90% of strains
C. tropicalis [5] = experiment: MFC determination; type: cell-based; conditions: for MFC Range: C. tropicalis strains, in µg/mL; for MFC50 / MFC90: C. tropicalis; for MFC50: kills 50% of strains; for MFC90: kills 90% of strains
Cr. neoformans strains = experiment: MIC testing (CLSI M27-A3, YNB, 72 h); type: cell-based, Cryptococcus neoformans; conditions: for MIC Range: Cr. neoformans strains, 72 h, in µg/mL; for MIC50 / MIC90: Cr. neoformans; for MIC50: inhibits 50% of strains; for MIC90: inhibits 90% of strains
[6] = system: individual Aspergillus spp. (Table 13, species not given); experiment: MIC testing (CLSI M38-A2), Table 13; type: cell-based; conditions: Aspergillus sp. of Table 13, caspofungin read as MEC; for MIC Range: in µg/mL; for MIC50: inhibits 50% of strains; for MIC90: inhibits 90% of strains
[7] = system: individual Aspergillus spp. (Table 14, species not named); experiment: MIC testing (CLSI M38-A2), Table 14; type: cell-based; conditions: Aspergillus sp. of Table 14, caspofungin read as MEC; for MIC Range: in µg/mL; for MIC50: inhibits 50% of strains; for MIC90: inhibits 90% of strains
[8] = system: individual Aspergillus spp. (Table 14, species not named); experiment: MFC determination, Table 14; type: cell-based; conditions: Aspergillus sp. of Table 14; for MFC50: kills 50% of strains; for MFC90: kills 90% of strains
[9] = system: individual Aspergillus spp. (Table 15, species not named); experiment: MIC testing (CLSI M38-A2), Table 15; type: cell-based; conditions: Aspergillus sp. of Table 15, caspofungin read as MEC; for MIC Range: in µg/mL; for MIC50: inhibits 50% of strains; for MIC90: inhibits 90% of strains
[10] = system: Fusarium strains (Table 18); experiment: MIC testing (CLSI M38-A2), Table 18; type: cell-based, Fusarium spp.; conditions: for MIC50: inhibits 50% of strains; for MIC90: inhibits 90% of strains
[11] = system: Fusarium strains (Table 18); experiment: MFC determination, Table 18; type: cell-based, Fusarium spp.; conditions: for MFC50: kills 50% of strains; for MFC90: kills 90% of strains
Penicillium strains = experiment: MIC testing (CLSI M38-A2); type: cell-based, Penicillium spp.; conditions: for MIC50 / MIC90: Penicillium; for MIC50: inhibits 50% of strains; for MIC90: inhibits 90% of strains
Paecilomyces strains [12] = experiment: MFC determination; type: cell-based, Paecilomyces spp.; conditions: Paecilomyces strains (5)
[13] = system: Blastomyces dermatitidis, Coccidioides immitis, and Histoplasma capsulatum strains; type: cell-based; conditions: dimorphic fungal isolates; in µg/mL
C. albicans SC5314 = experiment: In vitro activity (MFC) against the infecting strain, Example 18; type: cell-based, Candida albicans
Paecilomyces strains [14] = experiment: MIC testing (CLSI M38-A2); type: cell-based, Paecilomyces spp.; conditions: Paecilomyces strains (5); in µg/mL
[15] = Fluconazole-susceptible C. albicans n = 13

C[C@@H]1[C@H](O)[C@@H](C)/C=C/C=C/C=C/C=C/C=C/C=C/C=C/[C@H](O[C@@H]2O[C@H](C)[C@@H](O)[C@H](N)[C@@H]2O)C[C@@H]2O[C@](O)(C[C@@H](O)C[C@@H](O)[C@H](O)CC[C@@H](O)C[C@@H](O)CC(=O)O[C@H]1C)C[C@H](O)[C@H]2C(=O)O [Amphotericin B]
MIC50 ([1]; M19 medium): 0.34 µg/mL (≈ 0.368 µM)
MIC50 ([1]; Müller-Hinton medium): 0.04 µg/mL (≈ 0.0433 µM)
MFC Range (Candida albicans; Fluconazole-resistant C. albicans n = 7): 0.5-1
MFC Range (Candida albicans; [15]): 0.125-1
MFC50 (Candida albicans; [15]): 0.25 µg/mL (≈ 0.271 µM)
MFC90 (Candida albicans; [15]): 1 µg/mL (≈ 1.08 µM)
MIC Range (C. glabrata strains [2]; C. glabrata strains, in µg/mL): 0.125-1
MIC50 (C. glabrata strains [2]): 0.5 µg/mL (≈ 0.541 µM)
MIC90 (C. glabrata strains [2]): 0.5 µg/mL (≈ 0.541 µM)
MFC Range (C. glabrata strains [3]; in µg/mL): 0.5-1
MFC50 (C. glabrata strains [3]): 0.5 µg/mL (≈ 0.541 µM)
MFC90 (C. glabrata strains [3]): 1 µg/mL (≈ 1.08 µM)
MIC Range (C. tropicalis [4]): 0.25-0.5
MIC50 (C. tropicalis [4]): 0.25 µg/mL (≈ 0.271 µM)
MIC90 (C. tropicalis [4]): 0.5 µg/mL (≈ 0.541 µM)
MFC Range (C. tropicalis [5]): 0.25-1
MFC50 (C. tropicalis [5]): 0.5 µg/mL (≈ 0.541 µM)
MFC90 (C. tropicalis [5]): 1 µg/mL (≈ 1.08 µM)
MIC Range (Cr. neoformans strains): 0.06-1
MIC50 (Cr. neoformans strains): 0.25 µg/mL (≈ 0.271 µM)
MIC90 (Cr. neoformans strains): 0.5 µg/mL (≈ 0.541 µM)
MIC Range [6]: 1-2
MIC50 [6]: 1 µg/mL (≈ 1.08 µM)
MIC90 [6]: 2 µg/mL (≈ 2.16 µM)
MIC Range [7]: 0.25-2
MIC50 [7]: 1 µg/mL (≈ 1.08 µM)
MIC90 [7]: 1 µg/mL (≈ 1.08 µM)
MFC50 [8]: 2 µg/mL (≈ 2.16 µM)
MFC90 [8]: > 8 µg/mL
MIC Range [9]: 0.25-16
MIC50 [9]: 8 µg/mL (≈ 8.66 µM)
MIC90 [9]: 8 µg/mL (≈ 8.66 µM)
MIC50 [10]: 0.5 µg/mL (≈ 0.541 µM)
MIC90 [10]: 2 µg/mL (≈ 2.16 µM)
MFC50 [11]: 1 µg/mL (≈ 1.08 µM)
MFC90 [11]: 8 µg/mL (≈ 8.66 µM)
MIC Range (Penicillium strains; Penicillium strains, in µg/mL): 0.5-4
MIC50 (Penicillium strains): 1 µg/mL (≈ 1.08 µM)
MIC90 (Penicillium strains): 2 µg/mL (≈ 2.16 µM)
MFC Range (Paecilomyces strains [12]): > 4 µg/mL
MIC Range [13]: <0.03-0.125
MFC (C. albicans SC5314): 0.25 µg/mL (≈ 0.271 µM)

C[C@@H](c1ncncc1F)[C@](O)(Cn1cncn1)c1ccc(F)cc1F [Voriconazole, voriconazole]
MFC Range (Candida albicans; [15]): >32
MFC50 (Candida albicans; [15]): > 32 µg/mL
MFC90 (Candida albicans; [15]): > 32 µg/mL
MFC (Candida albicans; individual C. albicans strain with elevated MICs to non-polyene comparators (Table 22), listed as Vor): 16 and >32 (2×)
MIC50 (C. glabrata strains [2]): 0.25 µg/mL (≈ 0.716 µM)
MIC90 (C. glabrata strains [2]): 4 µg/mL (≈ 11.5 µM)
MIC (C. glabrata strains [2]; individual C. glabrata strain with elevated MICs to non-polyene comparators (Table 22), listed as Vor): 1 (3×) and >32 and 0.25 and 2
MFC Range (C. glabrata strains [3]; in µg/mL): >32
MFC50 (C. glabrata strains [3]): > 32 µg/mL
MFC90 (C. glabrata strains [3]): > 32 µg/mL
MFC (C. glabrata strains [3]; individual C. glabrata strain with elevated MICs to non-polyene comparators (Table 22), in µg/mL): >32
MIC Range (C. tropicalis [4]): <0.06-1
MIC50 (C. tropicalis [4]): 0.06 µg/mL (≈ 0.172 µM)
MIC90 (C. tropicalis [4]): 0.06 µg/mL (≈ 0.172 µM)
MFC Range (C. tropicalis [5]): >32
MFC50 (C. tropicalis [5]): > 32 µg/mL
MFC90 (C. tropicalis [5]): > 32 µg/mL
MIC Range (Cr. neoformans strains): <0.06-0.25
MIC50 (Cr. neoformans strains): < 0.06 µg/mL
MIC90 (Cr. neoformans strains): 0.125 µg/mL (≈ 0.358 µM)
MIC Range [6]: 0.25-2
MIC50 [6]: 0.5 µg/mL (≈ 1.43 µM)
MIC90 [6]: 1 µg/mL (≈ 2.86 µM)
MIC Range [7]: 0.06-8
MIC50 [7]: 1 µg/mL (≈ 2.86 µM)
MIC90 [7]: 4 µg/mL (≈ 11.5 µM)
MFC50 [8]: > 8 µg/mL
MFC90 [8]: > 8 µg/mL
MIC Range [9]: 0.25-2
MIC50 [9]: 0.5 µg/mL (≈ 1.43 µM)
MIC90 [9]: 0.5 µg/mL (≈ 1.43 µM)
MIC50 [10]: 16 µg/mL (≈ 45.8 µM)
MIC90 [10]: > 16 µg/mL
MFC50 [11]: > 16 µg/mL
MFC90 [11]: > 16 µg/mL
MIC50 (Penicillium strains): 4 µg/mL (≈ 11.5 µM)
MIC90 (Penicillium strains): > 32 µg/mL
MIC Range (Paecilomyces strains [14]): 0.125-2
MIC Range [13]: <0.03-0.125
MFC (C. albicans SC5314; Candida albicans, read-out: MFC): > 32 µg/mL
